# Experimental data reported in US20210380952A1, “Method to Produce Virus in Cultured Cells Supplemented With Alpha-Ketoglutarate” (THE TRUSTEES OF PRINCETON UNIVERSITY, priority 2012, published 2021).
# Like-named read-outs stand apart in the source and are kept apart here.
# Key:
# VZV [1] = test: Yield of cell-free VZV from infected MRC5 cells, plaque assay on ARPE-19 cells; format: cell-based, varicella zoster virus; settings: for VZV yield relative to no treatment (NT): 25 μM fatty acid plus 10 μM αT, 6 h after infection, sonicated immediately; for VZV yield relative to no treatment (NT) / VZV yield, fold change relative to no treatment (NT): MOI 1:50, 72 h; for VZV yield, fold change relative to no treatment (NT): added 6 hpi
# Protocol: For this test, MRC5 cells (passage 20-25) were seeded at a density of 300.000 cell/100 mm culture dish and grown in 15 ml of DMEM containing 10% fetal calf serum plus 2 mM GlutaMAX (GIBCO®, GlutaMAX™) at 35° C. A lipid mixture (LM-1, 1 ml/liter medium, Sigma Aldrich #L5146) was added to the cells either at the time of seeding or 1 day after seeding. Three days later, the culture medium was replaced with 10 ml growth medium containing 50 mM sucrose as a stabilizer. The cells were further incubated for 3 days and growth medium was replaced with fresh medium containing no sucrose. After cells reached confluence, they were infected with VZV by adding infected cells (1 infected cell/50 uninfected cells; infected cells were from a preparation frozen in a solution of 10% DMSO plus 90% fetal calf serum and stored in liquid nitrogen). At the time of infection, the cultures were re-fed with DMEM containing 10% fetal calf serum plus 2 mM glutamax. Arachidonic acid (AA)+alpha-tocopherol (αT) or DHA+αT were added at the indicated times. 72 hours after infection, cells were washed twice with PBS, and incubated in 10 ml of PBS containing 50 mM ammonium chloride for 50 minutes at 4° C. The cells were harvested and frozen in PSGC buffer (Harper et al., Arch Virol 143:1163-70, 1998) at −80° C. Infectious virus was subsequently quantified by plaque assay of sonicated cells on ARPE-19 cells (American Type Culture Collection). Results are set out in FIG. 3.
# Briefly, in these repeat experiments, MRC5 cells were infected with VZV at an MOI=1:50. AA, DHA, and αT were added to the cells at 6 hpi as indicated. 72 hours after infection, the cells were harvested into PSGC buffer and frozen at −80° C. for later processing. After thawing, the cells were sonicated and the yield of cell free VZV quantified by standard plaque assay on ARPE-19 cells. Fold change relative to no treatment (NT) is shown. […] The fold-changes are the average of two independent infections.
# In brief, MRC5 cells were infected with VZV at an MOI=1:50. Lipid mixture 1(LM-1) was added to the cells immediately after cell seeding. At 6 hours after infection, up to about 100 μM AA or […] was added to cells together with up to about 10 μM αT. 72 hours after infection, the cells were harvested into PSGC buffer and either frozen at −80° C. and sonicated later for the release of virus (frozen cells) or immediately sonicated after harvesting and supernatants containing the cell-free VZV were frozen at −80° C. (frozen sup.) prior to titration. Cell-free VZV yield was quantified by plaque assay on APRE-19 cells. Fold change relative to no treatment (NT) is shown. The numbers above the bars indicate the amount of virus obtained per ml in the corresponding treatment. The results are set out in FIG. 5.
# Briefly, MRC5 cells were infected with VZV at an MOI=1:50. Six hours after infection cells were treated with indicated combinations of lipids plus 10 μM αT. Hexacosanoic acid (HSA) and octacosanoic acid (OSA) were dissolved in 20 mg/ml α-cyclodextin (Sigma-Aldrich) in PBS by sonication and added to a solution of 10 mg/ml fatty acid-free BSA (Sigma-Aldrich) in PBS (1:1, v/v) to give a stock concentration of 10 mM for each fatty acid. HSA, OSA, and DHA were used at 25 μM, and AA was used at 25 μM. Two sets of fatty acid concentrations was used for combination treatments: DHA, AA, and HSA was either added at concentrations of 25 μM, 100 μM, and 25 μM (high), or 10 μM, 50 μM, and 10 μM (low), respectively. 72 hours after infection, the cells were harvested into PSGC buffer, sonicated immediately and the yield of cell free VZV quantified by plaque assay on ARPE-19 cells. Fold change relative to no treatment (NT) is shown. The fold-changes are the average of two independent infections.
# Briefly, MRC5 cells were grown in DMEM containing 10% fetal calf serum, 2 mM GlutaMAX) at 35° C. as described in the text. […]
# AD169 strain of HCMV = format: cell-based, human cytomegalovirus; settings: for HCMV yield, fold change relative to no treatment (NT): MRC5, 0.5 IU/cell, 96 h after infection
# Protocol: Cells were infected with the AD169 strain of HCMV at a multiplicity of 0.5 infectious units/cell, and immediately following a 2-hour adsorption period, cells were fed with medium (Dulbecco's Modified Eagle Medium, DMEM) containing 10% fetal calf serum plus various fatty acids, cholesterol and carbonyl scavenging compound. At 96 hours post infection, infectious virus in the medium was assayed by fluorescent focus assay using antibody to the HCMV IE1 protein.
# Briefly, About 90% confluent MRC5 human fibroblasts were infected with HCMV at a multiplicity of 0.5 IU/cell. Two hours after infection, medium was replaced with fresh medium containing 10% fetal calf serum and either of oleic acid (OA, up to about 100 μM), linoliec acid (LA, up to about 100 μM), a-linolenic acid (LLA, up to about 100 μM), eicosapentaenoic acid (EPA, up to about 75 μM), or docosahexaenoic acid (DHA, up to about 50 μM). The experiment was also performed in the presence of either aminoguanidine (AG, up to about 250 μM) or cholesterol (chol., up to about 13 μM). Virus production at 96 hours after infection was determined by fluorescent focus assay in MRC-5 cells and shown as a fold change relative to no treatment (NT) which was 5×10^5 infectious units. The fold-changes are the average of two independent infections.
# Briefly, about 90% confluent MRC5 fibroblasts were infected with HCMV at a multiplicity of 0.5 IU/cell. Two hours after infection, medium was replaced with fresh medium containing 10% fetal calf serum and α-tocopherol (α-T) or aminoguanidine (AG) at indicated concentrations. Virus production at 96 h after infection was determined by fluorescent focus assay in which MRC-5 cells and shown as a fold change relative to no treatment (NT). The fold-changes are the average of two independent infections. Results are set out in FIG. 2.
# MRC5 fibroblasts were infected with the AD169 strain of HCMV at a multiplicity of 0.5 infectious units/cell in glutamine/GlutaMAX-free DMEM containing 10% dialyzed FCS. The dialyzed serum was used to completely eliminate the glutamine in the culture medium. The cells received either 2 mM GlutaMAX, which served as a control, or 7 mM α-kg. At 96 hours post infection, infectious virus in the medium was assayed by fluorescent focus assay using antibody to the HCMV IE1 protein.
# MRC5 cells = test: Cytotoxicity evident upon visual inspection of treated infected cells; format: cell-based, human; settings: 100 μM fatty acid; VZV-infected MRC5 cells
# VZV [2] = test: Yield of cell-free VZV from infected MRC5 cells, plaque assay on ARPE-19 cells; format: cell-based, varicella zoster virus; settings: for VZV yield relative to no treatment (NT): with 10 μM α-T, 6 h after infection, HSA and DHA 25 μM, AA 100 μM, MOI 1:100, 72 hours post infection; for VZV yield, factor of increase: MOI 1:250, 72 h
# [3] = additive alone in medium from 2 h after infection, OA, LA, LLA up to about 100 μM, EPA 75 μM, DHA 50 μM, AG 250 μM, chol. 13 μM
# [4] = fatty acid together with aminoguanidine (up to about 250 μM)
# [5] = 25 μM fatty acid, absence of αT
compound,measurement,setting,value
"CCCCCCCCCCCCCCCCCCCCCCCCCCCC(=O)O [OSA, octacosanoic acid]",VZV yield relative to no treatment (NT),VZV [1],improved virus yields in comparison to no treatment
Cc1c(C)c2c(c(C)c1O)CC[C@@](C)(CCC[C@H](C)CCC[C@H](C)CCCC(C)C)O2 [alpha-tocopherol],HCMV production relative to no treatment (NT),"AD169 strain of HCMV; Example 2, FIG. 2, scavenging compound alone from 2 h after infection, MRC5, 96 h",enhances the production of HCMV
"CCCCCCCC/C=C\CCCCCCCC(=O)O [OA, oleic acid]","HCMV yield, fold change relative to no treatment (NT)",AD169 strain of HCMV; [3],reduced the yield of HCMV
same,"HCMV yield, fold change relative to no treatment (NT)",AD169 strain of HCMV; [4],reduced
same,"VZV production, factor of reduction",VZV [1]; 100 μM,2
same,Cytotoxicity / cellular toxicity,MRC5 cells,without causing observable cellular toxicity
N=C(N)NN [aminoguanidine],"HCMV yield, fold change relative to no treatment (NT)",AD169 strain of HCMV; [3],about 2.6 fold
"CCCCCCCCCCCCCCCCCCCCCCCCCC(=O)O [HSA, hexacosanoic acid]",VZV yield relative to no treatment (NT),VZV [1],improved virus yields in comparison to no treatment
same,VZV yield relative to no treatment (NT),VZV [2],elevated the yield of VZV
"CC/C=C\C/C=C\C/C=C\C/C=C\C/C=C\C/C=C\CCC(=O)O [DHA, docosahexaenoic acid]","HCMV yield, fold change relative to no treatment (NT)",AD169 strain of HCMV; [3],4.6 fold
same,"VZV yield, fold change relative to no treatment (NT)",VZV [1]; [5],about 1.5 fold
same,Cytotoxicity / cellular toxicity,MRC5 cells,toxic in the absence or presence of αT
"CCCCC/C=C\C/C=C\C/C=C\C/C=C\CCCC(=O)O [AA, arachidonic acid]","VZV yield, fold change relative to no treatment (NT)",VZV [1]; 25 μM fatty acid in the presence of αT,increased the virus yield
same,"VZV yield, fold change relative to no treatment (NT)",VZV [1]; [5],enhanced the yield of virus
same,"VZV yield, fold change relative to no treatment (NT)","VZV [1]; 100 μM fatty acid, absence of αT",inhibited virus production
same,"VZV yield, fold change relative to no treatment (NT)","VZV [2]; 100 μM fatty acid in the presence of αT, added 6 hpi, MOI 1:50, 72 h",5 fold
same,VZV yield relative to no treatment (NT),VZV [2],elevated the yield of VZV
CC(C)CCC[C@@H](C)[C@H]1CC[C@H]2[C@@H]3CC=C4C[C@@H](O)CC[C@]4(C)[C@H]3CC[C@]12C [cholesterol],"HCMV yield, fold change relative to no treatment (NT)",AD169 strain of HCMV; [3],no effect on HCMV yield
same,"HCMV yield, effect on the enhancing effects of fatty acids","AD169 strain of HCMV; cholesterol (up to about 13 μM) together with fatty acids, MRC5, 96 h after infection","did not improve, and in some cases inhibited"
same,"VZV yield, factor relative to no treatment","VZV [2]; 13 μM cholesterol, MOI 1:100, 72 hr after infection",increased the yield of VZV by a factor of about two
"CC/C=C\C/C=C\C/C=C\CCCCCCCC(=O)O [LLA, α-linolenic acid]","HCMV yield, fold change relative to no treatment (NT)",AD169 strain of HCMV; [3],about 1.2 fold
same,"HCMV yield, fold change relative to no treatment (NT)",AD169 strain of HCMV; [4],reduced
"CCCCC/C=C\C/C=C\CCCCCCCC(=O)O [LA, linoleic acid]","HCMV yield, fold change relative to no treatment (NT)",AD169 strain of HCMV; [3],had little effect on the yield
same,"HCMV yield, fold change relative to no treatment (NT)",AD169 strain of HCMV; [4],reduced
"COC(=O)CCC(=O)C(=O)OC [α-kg, dimethyl-α-ketoglutarate]","Production of cell-free HCMV, fold increase relative to 2 mM GlutaMAX control","AD169 strain of HCMV; 7 mM α-kg replacing glutamine, glutamine/GlutaMAX-free DMEM, 10% dialyzed FCS, 0.5 infectious units/cell, 96 hours post infection",4.3 fold
same,VZV replication / titers,"VZV [2]; 1 mM α-kg in the absence of GlutaMAX, MOI 1:100, 72 h",unable to support virus replication
same,VZV replication / titers,"VZV [2]; 2.5 mM α-kg in the absence of GlutaMAX, MOI 1:100, 72 h",unable to support virus replication
same,"VZV yield, fold increase relative to GlutaMAX (NT; 2 mM)","VZV [2]; 7 mM α-kg alone, glutamine/GlutaMAX-free medium, MOI 1:50, added 6 hpi, 72 h",3.4 fold
same,"VZV replication, fold enhancement compared to the addition of 2 mM GlutaMAX","VZV [2]; 7 mM α-kg in the absence of GlutaMAX, MOI 1:100, 72 h",2.8 fold
same,"VZV yield, fold increase","VZV [2]; 7 mM α-kg in the presence of 2 mM GlutaMAX, MOI 1:100, added 6 h, 72 h",about 2.1 fold
same,Concentration required to optimally support the replication of VZV,"VZV [2]; MRC5, MOI 1:100, 72 h",> 2.5 mM
same,"VZV yield, factor of increase",VZV [2]; glutamine-free medium supplemented with dialyzed serum (10% dialyzed FCS),~9.7
same,"VZV yield, factor of increase",VZV [2]; glutamine/GlutaMAX-free medium containing normal serum (10% FCS),~3.7 fold
"CC/C=C\C/C=C\C/C=C\C/C=C\C/C=C\CCCC(=O)O [EPA, eicosapentaenoic acid]","HCMV yield, fold change relative to no treatment (NT)",AD169 strain of HCMV; [3],2.5 fold
